This note sets out measurements from ChEMBL document CHEMBL4396908, “Sulfamates in drug design and discovery: Pre-clinical and clinical investigations” (Eur J Med Chem, 2019).

A value given as a limit tells only on which side of the number the result lay.

Usually Ki stands for a dissociation constant, usually derived from enzyme kinetics or from competition with a known ligand. As a reminder, the IC50 is the concentration at which inhibition is half-maximal.

One experiment addresses Carbonic anhydrase 9 (Homo sapiens, UniProt Q16790). The experiment can be described thus: Inhibition of human carbonic anhydrase 9.
The target of experiment [1] is T1, Carbonic anhydrase 2 (Homo sapiens, UniProt P00918). In words: Inhibition of human carbonic anhydrase 2.
Experiment [2] deals with T2, Steryl-sulfatase (Homo sapiens, UniProt P08842).
T2 sequence (P08842 whole entry): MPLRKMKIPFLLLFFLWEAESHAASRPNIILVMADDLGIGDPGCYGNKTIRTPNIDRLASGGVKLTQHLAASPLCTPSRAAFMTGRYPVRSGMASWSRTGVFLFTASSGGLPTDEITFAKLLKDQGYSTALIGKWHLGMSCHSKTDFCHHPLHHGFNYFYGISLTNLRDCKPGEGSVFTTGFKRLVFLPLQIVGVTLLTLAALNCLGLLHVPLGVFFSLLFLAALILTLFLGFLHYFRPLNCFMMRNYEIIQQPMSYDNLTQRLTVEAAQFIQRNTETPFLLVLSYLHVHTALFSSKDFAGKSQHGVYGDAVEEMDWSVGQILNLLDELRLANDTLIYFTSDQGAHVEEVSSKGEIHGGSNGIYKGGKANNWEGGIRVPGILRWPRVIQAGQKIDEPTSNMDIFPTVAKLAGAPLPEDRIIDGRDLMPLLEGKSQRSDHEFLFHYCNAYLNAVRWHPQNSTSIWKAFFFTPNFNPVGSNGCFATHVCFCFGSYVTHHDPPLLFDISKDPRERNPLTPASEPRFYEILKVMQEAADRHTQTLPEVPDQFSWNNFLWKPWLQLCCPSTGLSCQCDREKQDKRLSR
The experiment can be described thus: Inhibition of human placental steroid sulfatase.

Experiment [3] deals with MCF7. In words: Antiproliferative activity against human MCF7 cells. The experiment is classed as functional, cell-based.
The subject of experiment [4] is MDA-MB-231. In words: Antiproliferative activity against human MDA-MB-231 cells. Type of experiment: functional, cell-based.
Experiment [5] deals with Rattus norvegicus. In words: In vivo inhibition of steroid sulfatase in Wistar rat assessed as enzyme recovery at 10 mg/kg, sc single dose treated for 3 days measured after 1 week relative to control. Type of experiment: functional. On the set-up: scale not given: the % may be the effect or the level left.
Experiment [6] concerns Rattus norvegicus. The experiment can be described thus: In vivo inhibition of steroid sulfatase in Wistar rat assessed as enzyme recovery at 10 mg/kg, sc single dose treated for 10 days measured after 15 days relative to control. Type of experiment: functional. Also noted: scale not given: the % may be the effect or the level left.
Experiment [7] relates to MCF7. In words: Antiproliferative activity against human MCF7 cells at 1 uM relative to control. The experiment is classed as functional.
Experiment [8] has as its system Rattus norvegicus. The experiment can be described thus: In vivo inhibition of aromatase in Wistar rat at 10 mg/kg, po after 3 hrs relative to control. Type of experiment: functional.
The test system of experiment [9] is Rattus norvegicus. In words: In vivo inhibition of steroid sulfatase in Wistar rat at 10 mg/kg, po after 3 hrs relative to control. The experiment is classed as functional.
Experiment [10] is filed under the species Rattus norvegicus. The experiment can be described thus: animal or person. The settings on record: Wistar, 3 h.
In a further experiment the target is Carbonic anhydrase 4 (Homo sapiens, UniProt P22748). The experiment can be described thus: Inhibition of human carbonic anhydrase 4.
Sequence of Carbonic anhydrase 4 (P22748 whole entry): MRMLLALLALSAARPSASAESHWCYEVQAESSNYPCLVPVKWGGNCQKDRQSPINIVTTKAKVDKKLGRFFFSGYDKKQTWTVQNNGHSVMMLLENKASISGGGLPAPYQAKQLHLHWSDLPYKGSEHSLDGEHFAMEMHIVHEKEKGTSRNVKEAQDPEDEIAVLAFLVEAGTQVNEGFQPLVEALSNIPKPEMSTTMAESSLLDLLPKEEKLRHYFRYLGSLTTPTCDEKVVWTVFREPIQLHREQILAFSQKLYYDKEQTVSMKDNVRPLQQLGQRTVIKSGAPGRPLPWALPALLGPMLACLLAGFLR
In experiment [11] the target is T2, Steryl-sulfatase. In words: Inhibition of steroid sulfatase (unknown origin).
The species named for a further experiment is Homo sapiens. In words: Selectivity ratio of IC50 for human carbonic anhydrase 1 to IC50 for human carbonic anhydrase 9.
A further experiment concerns the target Carbonic anhydrase 1 (Homo sapiens, UniProt P00915). The experiment can be described thus: Inhibition of human carbonic anhydrase 1 using p-nitrophenylacetate as substrate after 3 mins.
The next experiment deals with Acetylcholinesterase (Electrophorus electricus, UniProt O42275). In words: Inhibition of electric ee AChE using acetylthiocholine iodide as substrate preincubated for 15 mins followed by substrate addition by Ellman's method. On the technique in general: Ellman's reagent forms a yellow product with free thiols.
Sequence of Acetylcholinesterase (O42275 whole entry): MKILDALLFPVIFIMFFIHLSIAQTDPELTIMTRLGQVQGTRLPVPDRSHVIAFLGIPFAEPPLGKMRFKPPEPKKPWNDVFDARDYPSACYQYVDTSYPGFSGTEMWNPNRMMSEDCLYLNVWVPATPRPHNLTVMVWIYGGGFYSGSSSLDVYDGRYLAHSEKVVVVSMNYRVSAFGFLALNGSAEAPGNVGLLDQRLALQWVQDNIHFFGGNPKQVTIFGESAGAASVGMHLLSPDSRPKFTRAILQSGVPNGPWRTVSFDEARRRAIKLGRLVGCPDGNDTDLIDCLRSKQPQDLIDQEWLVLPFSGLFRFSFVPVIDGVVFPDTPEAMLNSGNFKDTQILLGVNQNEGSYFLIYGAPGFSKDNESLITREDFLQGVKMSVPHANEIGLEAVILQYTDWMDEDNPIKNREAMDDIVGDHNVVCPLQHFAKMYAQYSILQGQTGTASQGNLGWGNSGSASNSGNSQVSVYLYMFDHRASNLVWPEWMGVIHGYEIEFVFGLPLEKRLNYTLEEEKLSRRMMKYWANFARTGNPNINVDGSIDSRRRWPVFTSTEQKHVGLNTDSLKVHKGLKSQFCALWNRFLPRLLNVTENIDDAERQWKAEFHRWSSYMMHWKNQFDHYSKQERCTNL
The target in experiment [12] is T1, Carbonic anhydrase 2. In words: Inhibition of human carbonic anhydrase 2 using p-nitrophenylacetate as substrate after 3 mins.
The target of the next experiment is Cholinesterase (Equus caballus, UniProt P81908). The experiment can be described thus: Inhibition of equine BChE using butyrylthiocholine iodide as substrate preincubated for 15 mins followed by substrate addition by Ellman's method.
Sequence of Cholinesterase (P81908 whole entry): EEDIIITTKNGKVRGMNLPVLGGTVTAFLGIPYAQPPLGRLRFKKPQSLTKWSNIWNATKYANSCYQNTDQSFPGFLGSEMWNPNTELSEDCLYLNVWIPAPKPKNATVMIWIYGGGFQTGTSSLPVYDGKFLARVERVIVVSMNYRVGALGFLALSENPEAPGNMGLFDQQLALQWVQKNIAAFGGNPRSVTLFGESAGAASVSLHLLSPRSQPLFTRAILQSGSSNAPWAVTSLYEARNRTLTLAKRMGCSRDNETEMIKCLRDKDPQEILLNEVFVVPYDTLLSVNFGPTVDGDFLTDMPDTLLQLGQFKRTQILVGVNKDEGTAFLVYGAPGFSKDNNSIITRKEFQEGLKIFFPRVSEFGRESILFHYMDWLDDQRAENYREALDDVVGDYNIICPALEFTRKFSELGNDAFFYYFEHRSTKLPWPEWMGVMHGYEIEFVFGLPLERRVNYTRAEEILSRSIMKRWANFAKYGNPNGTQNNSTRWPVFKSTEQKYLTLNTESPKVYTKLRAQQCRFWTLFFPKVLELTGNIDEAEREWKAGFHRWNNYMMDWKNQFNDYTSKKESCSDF
Experiment [13] addresses T2, Steryl-sulfatase. The experiment can be described thus: Inhibition of steroid sulfatase (unknown origin) expressed in human MCF7 cells. The experiment is classed as cell-based.
Experiment [14] deals with T2, Steryl-sulfatase. The experiment can be described thus: Inhibition of steroid sulfatase (unknown origin) expressed in CHO cells. The experiment is classed as cell-based.
The subject of experiment [15] is Rattus norvegicus. The experiment can be described thus: In vivo inhibition of steroid sulfatase in Wistar rat at 10 mg/kg, po relative to control. Type of experiment: functional.
The target of experiment [16] is T2, Steryl-sulfatase. In words: Inhibition of steroid sulfatase derived form human placental microsomes. Also noted: species or system Placenta.
The target of experiment [17] is T2, Steryl-sulfatase. In words: Inhibition of steroid sulfatase in human MCF7 cells. The experiment is classed as cell-based.
The target of experiment [18] is T2, Steryl-sulfatase. In words: Inhibition of human placental steroid sulfatase expressed in HEK293 cells using [3H] E1S as substrate after 2 hrs by liquid scintillation counting method. Type of experiment: cell-based.
For experiment [19], the system named is MCF7. In words: Antitumor activity against human MCF7 cells xenografted in MF-1 nude mouse assessed as tumor growth inhibition at 5 mg/kg, po treated for 4 weeks in presence of 2-deoxy-D-glucose by immunohistochemistry relative to control. The experiment is classed as functional. The settings on record: 672 h, read-out: TGI. For orientation: A xenograft is tissue or cells of one species grown in another, often human tumour cells in immunodeficient mice.

Experiment [20] deals with MDA-MB-231. In words: Antiproliferative activity against estrogen receptor-negative human MDA-MB-231 cells. The experiment is classed as functional, cell-based.
Experiment [21] deals with MCF7. The experiment can be described thus: Antiproliferative activity against estrogen receptor-positive human MCF7 cells. Type of experiment: functional, cell-based.

Sequence of Carbonic anhydrase 1 (P00915 whole entry): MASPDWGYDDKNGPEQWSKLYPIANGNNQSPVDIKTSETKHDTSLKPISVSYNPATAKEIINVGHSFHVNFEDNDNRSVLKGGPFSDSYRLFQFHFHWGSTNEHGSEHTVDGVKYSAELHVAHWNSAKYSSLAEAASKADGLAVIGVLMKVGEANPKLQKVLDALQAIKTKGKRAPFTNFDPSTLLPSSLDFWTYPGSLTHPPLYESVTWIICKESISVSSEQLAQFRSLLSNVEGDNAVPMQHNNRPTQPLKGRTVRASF

As for `NS(=O)(=O)Oc1ccc(NC2=NC(=O)/C(=C\c3ccc(C(F)(F)F)cc3)S2)cc1`, the inhibitory constant (Ki) on Carbonic anhydrase 9 fell in the range of 17.6 to 73.3 nM; at Carbonic anhydrase 2 [1], 28.7 to 84.3 nM.
The compound `NS(=O)(=O)Oc1ccc2ccc(=O)oc2c1` displayed an IC50 against Steryl-sulfatase [2] of 2130 nM.
For the compound `CCc1cc2c(cc1OS(N)(=O)=O)CC[C@@H]1[C@@H]2CC[C@]2(C)[C@@H](OS(N)(=O)=O)CC[C@@H]12`, the IC50 in the experiment on MCF7 [3] was 70 nM; in the experiment on MDA-MB-231 [4] it was 80 nM.
With `C[C@]12CC[C@@H]3c4ccc(OS(N)(=O)=O)cc4CC[C@H]3[C@@H]1CCC2=O` [EMATE], the Activity in the experiment with Rattus norvegicus [5] is on record as 10 - 15%; in the experiment with Rattus norvegicus [6], 30%.
In the case of `COc1ccc(/C=C2/SC(Nc3ccc(OS(N)(=O)=O)cc3)=NC2=O)cc1`, the Ki is 17.6 to 73.3 nM on Carbonic anhydrase 9 and 28.7 to 84.3 nM on Carbonic anhydrase 2 [1].
`COc1cc2c(cc1OS(N)(=O)=O)CC[C@@H]1[C@@H]2CC[C@]2(C)C(=O)CC[C@@H]12`: the Activity with MCF7 [7] is reported as 52%.
Regarding `NS(=O)(=O)Oc1ccc(NC2=NC(=O)/C(=C\c3ccc(Cl)cc3)S2)cc1`, the values for the Ki on Carbonic anhydrase 9 and on Carbonic anhydrase 2 [1] were 17.6 to 73.3 nM and 28.7 to 84.3 nM, respectively.
Regarding `N#Cc1ccc(N(Cc2ccc3c(Br)c(OS(N)(=O)=O)ccc3c2)n2cnnc2)cc1`, the inhibition in vivo at 10 mg/kg with Rattus norvegicus [8] and in the experiment with Rattus norvegicus [9] was 93% each time. Further, it took 205 nM to reach half-maximal inhibition in the experiment listed under Rattus norvegicus [10] (IC50).
With `Cc1ccc(/C=C2/SC(Nc3ccc(OS(N)(=O)=O)cc3)=NC2=O)cc1`, the inhibition constant (Ki) at Carbonic anhydrase 9 was 17.6 to 73.3 nM; at Carbonic anhydrase 2 [1], 28.7 to 84.3 nM.
Consider `COc1cc(/C=C2/SC(Nc3ccc(OS(N)(=O)=O)cc3)=NC2=O)cc(OC)c1OC`, for which the inhibition constant (Ki) on Carbonic anhydrase 4 is 42.3 nM; on Carbonic anhydrase 9, 17.6 to 73.3 nM; on Carbonic anhydrase 2 [1], 28.7 to 84.3 nM.
As for `Cc1cc(=O)oc2cc(OS(N)(=O)=O)ccc12`, the IC50 against Steryl-sulfatase [11] worked out at 30 nM.
For the compound `NS(=O)(=O)Oc1ccc2c3c(c(=O)oc2c1)CCCCCC3`, at Steryl-sulfatase [11], the 50% inhibitory concentration (IC50) is 1 nM.
On to `NS(=O)(=O)Oc1ccc(NC2=NC(=O)/C(=C\c3ccccc3)S2)cc1`, for which the inhibition constant (Ki) on Carbonic anhydrase 4 is 76.1 nM; at Carbonic anhydrase 9 it was 17.6 to 73.3 nM; at Carbonic anhydrase 2 [1], 28.7 to 84.3 nM.
Consider `NS(=O)(=O)Oc1ccc(CCNC(=O)C(F)(F)C(F)(F)C(F)(F)C(F)(F)C(F)(F)C(F)(F)C(F)(F)C(F)(F)C(F)(F)C(F)(F)F)cc1`, for which, at Steryl-sulfatase [2], the half-maximal inhibitory concentration (IC50) amounted to 2180 nM.
As to `NS(=O)(=O)Oc1ccc(NC2=NC(=O)/C(=C\c3ccc(F)cc3)S2)cc1`, the inhibition constant (Ki) at Carbonic anhydrase 9 lay in the range of 17.6 to 73.3 nM; on Carbonic anhydrase 2 [1] it was 28.7 to 84.3 nM.
Consider `NS(=O)(=O)Oc1ccc(/C=C/C(=O)C[C@@H]2O[C@H](CO)[C@@H](O)[C@H](O)[C@H]2O)cc1`, for which, on Carbonic anhydrase 9, half-maximal inhibition (IC50) required 101 nM. For the same compound, in the experiment listed under Homo sapiens, the Ratio IC50 stood at 3.38.
`CC(C)[C@@H]1CC[C@@H](C)C[C@H]1OS(=O)(=O)NC(c1ccccc1)c1ccccc1`: the IC50 on Carbonic anhydrase 1 was 44 nM; against Acetylcholinesterase, 206 nM; on Carbonic anhydrase 2 [12], 16 nM; at Cholinesterase, 246 nM.
For the compound `NS(=O)(=O)Oc1ccc2nc(C=C3C4CC5CC(C4)CC3C5)oc2c1`, the concentration for half-maximal inhibition (IC50) against Steryl-sulfatase [13] and at Steryl-sulfatase [14] was 0.15 to 31.8 nM throughout.
`N#Cc1ccc(N(Cc2ccc(OS(N)(=O)=O)cc2)n2cnnc2)cc1` registered an inhibition in vivo at 10 mg/kg in the experiment with Rattus norvegicus [15] above 98%.
With `Cc1c(Cc2ccccc2)c(=O)oc2cc(OS(N)(=O)=O)ccc12`, the IC50 on Steryl-sulfatase [16] amounted to 8 nM; against Steryl-sulfatase [17] it was 1 nM.
`CCCCCCC(O)(CCCCc1ccc(OS(N)(=O)=O)cc1)c1ccc(C(C)(C)C)cc1` (centres undefined): on Steryl-sulfatase [18], it took 0.4 nM to reach half-maximal inhibition (IC50).
For `COc1cc2c(cc1OS(N)(=O)=O)CC[C@@H]1[C@@H]2CC[C@]2(C)[C@@H](OS(N)(=O)=O)CC[C@@H]12`, the inhibition in vivo at 5 mg/kg in the experiment with MCF7 [19] was determined as 76%. The half-maximal inhibitory concentration (IC50) with MDA-MB-231 [20] is 290 nM; in the experiment with MCF7 [21], 250 nM.
For `NS(=O)(=O)Oc1ccc(NC2=NC(=O)/C(=C\c3cccc4ccccc34)S2)cc1`, the Ki lay within 17.6 to 73.3 nM at Carbonic anhydrase 9 and 28.7 to 84.3 nM on Carbonic anhydrase 2 [1].
Consider `CCCCCCc1c(C)c2ccc(OS(N)(=O)=O)cc2oc1=O`, for which the results for the 50% inhibitory concentration (IC50) at Steryl-sulfatase [16] and on Steryl-sulfatase [17] were 32 nM and 0.68 nM, respectively.
As to `NS(=O)(=O)Oc1ccc(NC2=NC(=O)/C(=C\c3ccc([N+](=O)[O-])cc3)S2)cc1`, the Ki at Carbonic anhydrase 9 was in the range of 17.6 to 73.3 nM; at Carbonic anhydrase 2 [1] it was 28.7 to 84.3 nM.
